# Literature values, collected in PubChem BioAssay AID1259409 (Chemical Carcinogenesis Research Information System (CCRIS), 2018).
# “And” between values parts separate entries of the source, which are not always exact repeats. Equal values may be shown once.
# Test system: rodent chemically induced tumor inhibition, incidence and multiplicity
# Experiment: CCRIS tumor inhibitor studies
# Conditions: for tumour outcome (control, treated, inhibition, significance): Carcinogen: 7,12-DIMETHYLBENZ[A]ANTHRACENE, 57-97-6
smiles,measurement,setting,value
COc1ccc2c(c1)c(CC(=O)O)c(C)n2C(=O)c1ccc(Cl)cc1,outcome,"Carcinogen: 4-HYDROXYBUTYL(BUTYL)NITROSAMINE [3817-11-6], Dose [Inhibitor]: 20 MG/KG IN DIET 1 WK BEFORE CARCINOGEN (STUDY DURATION: 32 WK), Route [Inhibitor]: DIET, Species: MOUSE, Strain/Sex: B6D2F1/MALE, Target Tissue: Type of Lesion: BLADDER: CARCINOMA, Dose [Carcinogen]: 7.5 MG/WK FOR 12 WK","32, 3, 91%"
same,outcome,"Carcinogen: 4-HYDROXYBUTYL(BUTYL)NITROSAMINE [3817-11-6], Dose [Inhibitor]: 20 MG/KG IN DIET 20 WK AFTER LAST CARCINOGEN DOSE (STUDY DURATION: 61 WK), Route [Inhibitor]: DIET, Species: MOUSE, Strain/Sex: B6D2F1/MALE, Target Tissue: Type of Lesion: BLADDER: CARCINOMA, Dose [Carcinogen]: 7.5 MG/WK FOR 12 WK","66, 42, 36%"
same,outcome,"Carcinogen: 4-HYDROXYBUTYL(BUTYL)NITROSAMINE [3817-11-6], Dose [Inhibitor]: 20 MG/KG IN DIET FOR 30 WK AT 1 WK AFTER LAST CARCINOGEN TREATMENT (STUDY DURATION: 42 WK), Route [Inhibitor]: DIET, Species: MOUSE, Strain/Sex: B6D2F1/MALE, Target Tissue: Type of Lesion: BLADDER: CARCINOMA, Dose [Carcinogen]: 7.5 MG/WK FOR 12 WK","31, 7, 77%"
same,"tumour outcome (control, treated, inhibition, significance)","Dose [Inhibitor]: 0, 0.004% IN 20% FAT DIET CONTAINING 0.5% LINOLEIC ACID BEGINNING 7 D POST CARCINOGEN DOSE AND CONTINUING FOR DURATION O, Route [Inhibitor]: ORAL, Species: RAT, Strain/Sex: SPRAGUE-DAWLEY/FEMALE, Target Tissue: Type of Lesion: MAMMARY GLAND: ADENOCARCINOMA, Dose [Carcinogen]: 5 MG AT 50-53 DAYS OF AGE, Promoter: NONE USED","56%, 62%, -11%, not calculated"
same,"tumour outcome (control, treated, inhibition, significance)","Dose [Inhibitor]: 0, 0.004% IN 20% FAT DIET CONTAINING 4% LINOLEIC ACID BEGINNING 7 D POST CARCINOGEN DOSE AND CONTINUING FOR DURATION OF, Route [Inhibitor]: ORAL, Species: RAT, Strain/Sex: SPRAGUE-DAWLEY/FEMALE, Target Tissue: Type of Lesion: MAMMARY GLAND: ADENOCARCINOMA, Dose [Carcinogen]: 5 MG AT 50-53 DAYS OF AGE, Promoter: NONE USED","53%, 39%, 26%, not calculated"
same,"tumour outcome (control, treated, inhibition, significance)","Dose [Inhibitor]: 0, 0.004% IN 20% FAT DIET CONTAINING 12% LINOLEIC ACID BEGINNING 7 D POST CARCINOGEN DOSE AND CONTINUING FOR DURATION OF, Route [Inhibitor]: ORAL, Species: RAT, Strain/Sex: SPRAGUE-DAWLEY/FEMALE, Target Tissue: Type of Lesion: MAMMARY GLAND: ADENOCARCINOMA, Dose [Carcinogen]: 5 MG AT 50-53 DAYS OF AGE, Promoter: NONE USED","69%, 50%, 28%, not calculated"
same,"tumour outcome (control, treated, inhibition, significance)","Dose [Inhibitor]: 0, 0.005% IN HIGH-FAT (20% CORN OIL) DIET BEGINNING 7 D POST CARCINOGEN DOSE (STUDY DURATION: 20 WK), Route [Inhibitor]: ORAL, Species: RAT, Strain/Sex: SPRAGUE-DAWLEY/FEMALE, Target Tissue: Type of Lesion: MAMMARY GLAND: ADENOCARCINOMA, Dose [Carcinogen]: 5 MG ONCE, Promoter: NONE USED","26/32 (81%), 10/33 (30%), 63%, not calculated"
same,"tumour outcome (control, treated, inhibition, significance)","Dose [Inhibitor]: 0, 0.005% IN HIGH-FAT DIET BEGINNING 7 D POST CARCINOGEN TREATMENT (STUDY DURATION: 48 WK), Route [Inhibitor]: ORAL, Species: RAT, Strain/Sex: SPRAGUE-DAWLEY/FEMALE, Target Tissue: Type of Lesion: MAMMARY GLAND: ADENOCARCINOMA, Dose [Carcinogen]: 5 MG ONCE AT 50 D OF AGE, Promoter: NONE USED","93%, 47%, 49%, p<0.01"
same,"tumour outcome (control, treated, inhibition, significance)","Dose [Inhibitor]: 0, 0.005% IN LOW-FAT (0.5% CORN OIL) DIET BEGINNING 7 D POST CARCINOGEN DOSE (STUDY DURATION: 20 WK), Route [Inhibitor]: ORAL, Species: RAT, Strain/Sex: SPRAGUE-DAWLEY/FEMALE, Target Tissue: Type of Lesion: MAMMARY GLAND: ADENOCARCINOMA, Dose [Carcinogen]: 5 MG ONCE, Promoter: NONE USED","9/33 (27%), 11/32 (34%), -26%, not calculated"
same,"tumour outcome (control, treated, inhibition, significance)","Dose [Inhibitor]: 0, 0.005% IN LOW-FAT DIET BEGINNING 7 D POST CARCINOGEN TREATMENT (STUDY DURATION: 48 WK), Route [Inhibitor]: ORAL, Species: RAT, Strain/Sex: SPRAGUE-DAWLEY/FEMALE, Target Tissue: Type of Lesion: MAMMARY GLAND: ADENOCARCINOMA, Dose [Carcinogen]: 5 MG ONCE AT 50 D OF AGE, Promoter: NONE USED","40%, 33%, 18%, not significant"
same,"tumour outcome (control, treated, inhibition, significance)","Dose [Inhibitor]: 0, 0.1 UMOL 2/WK FOR 18 WK APPLIED 10-15 MIN PRIOR TO EACH PROMOTER DOSE (STUDY DURATION: 20 WK), Route [Inhibitor]: DERMAL, Species: MOUSE, Strain/Sex: CD-1/FEMALE, Target Tissue: Type of Lesion: SKIN: TUMOR, Dose [Carcinogen]: 200 NMOL ONCE, Promoter: 12-O-TETRADECANOYL-13-ACETATE, 16561-29-8","95%, 80%, 16%, not significant"
same,"tumour outcome (control, treated, inhibition, significance)","Dose [Inhibitor]: 0, 0.3 UMOL 2/WK FOR 18 WK APPLIED 10-15 MIN PRIOR TO EACH PROMOTER DOSE (STUDY DURATION: 20 WK), Route [Inhibitor]: DERMAL, Species: MOUSE, Strain/Sex: CD-1/FEMALE, Target Tissue: Type of Lesion: SKIN: TUMOR, Dose [Carcinogen]: 200 NMOL ONCE, Promoter: 12-O-TETRADECANOYL-13-ACETATE, 16561-29-8","100%, 95%, 5%, not significant"
same,"tumour outcome (control, treated, inhibition, significance)","Dose [Inhibitor]: 0, 20 UG/ML IN DRINKING WATER 24 HR/D 3 D/WK FOR 26 WK BEGINNING AT 45 D OF AGE (STUDY DURATION: 26 WK), Route [Inhibitor]: ORAL, Species: RAT, Strain/Sex: SD/FEMALE, Target Tissue: Type of Lesion: MAMMARY GLAND: TUMOR, Dose [Carcinogen]: 10 UG/ANIMAL IN CORN OIL INTRAGASTRICALLY ON 45, 50, 55 D OF AGE","100%, 37%, 63%, p<0.001"
same,"tumour outcome (control, treated, inhibition, significance)","Dose [Inhibitor]: 0.004% DIET FOR 22 WK STARTING 3 D AFTER CARCINOGEN ADMINISTRATION (STUDY DURATION: 22 WK), Route [Inhibitor]: ORAL, Species: RAT, Strain/Sex: SPRAGUE-DAWLEY/FEMALE, Target Tissue: Type of Lesion: MAMMARY GLANDS: ADENOCARCINOMA, Dose [Carcinogen]: 5 MG ONCE, Promoter: NONE USED","44%, 41%, 7%, not significant and 59%, 38%, 36%, not significant"
same,"tumour outcome (control, treated, inhibition, significance)","Dose [Inhibitor]: 28 NMOL IN 0.2 ML ACETONE APPLIED 2/WK FOR 16 WK 5 HR BEFORE EACH PROMOTER APPLICATION BEGINNING 2 WK POST CARCINOGEN TR, Route [Inhibitor]: DERMAL, Species: MOUSE, Strain/Sex: CD-1/FEMALE, Target Tissue: Type of Lesion: SKIN: PAPILLOMA, Dose [Carcinogen]: 0.2 UMOL IN 0.2 ML ACETONE ONCE, Promoter: 12-O-TETRADECANOYLPHORBOL-13-ACETATE, 16561-29-8","100%, 97%, 3%, not significant"
same,"tumour outcome (control, treated, inhibition, significance)","Dose [Inhibitor]: 280 NMOL IN 0.2 ML ACETONE APPLIED 2/WK FOR 16 WK 5 HR BEFORE EACH PROMOTER APPLICATION BEGINNING 2 WK POST CARCINOGEN D, Route [Inhibitor]: DERMAL, Species: MOUSE, Strain/Sex: CD-1/FEMALE, Target Tissue: Type of Lesion: SKIN: PAPILLOMA, Dose [Carcinogen]: 0.2 UMOL IN 0.2 ML ACETONE ONCE, Promoter: 12-O-TETRADECANOYLPHORBOL-13-ACETATE, 16561-29-8","100%, 88%, 12%, not significant"
same,"tumour outcome (control, treated, inhibition, significance)","Dose [Inhibitor]: 280 NMOL IN 0.2 ML ACETONE APPLIED 2/WK FOR 20 WK 2 HR BEFORE EACH PROMOTER APPLICATION BEGINNING 2 WK POST CARCINOGEN D, Route [Inhibitor]: DERMAL, Species: MOUSE, Strain/Sex: CD-1/FEMALE, Target Tissue: Type of Lesion: SKIN: PAPILLOMA, Dose [Carcinogen]: 0.2 UMOL IN 0.2 ML ACETONE ONCE, Promoter: 12-O-TETRADECANOYLPHORBOL-13-ACETATE, 16561-29-8","90%, 84%, 7%, not significant"
same,outcome,"Carcinogen: ACETOXYMETHYL(METHYLNITROSAMINE), 56856-83-8, Dose [Inhibitor]: 0, 0.001% IN DRINKING WATER FOR 10 WK ADMINISTERED CONCURRENTLY WITH CARCINOGEN TREATMENT (STUDY DURATION: 31 WK), Route [Inhibitor]: ORAL, Species: RAT, Strain/Sex: SPRAGUE-DAWLEY/MALE, Target Tissue: Type of Lesion: LARGE BOWEL: TUMORS, Dose [Carcinogen]: 2 MG/KG BW 1/WK FOR 10 WK, Promoter: NONE USED","28/29 (97%), 30/30 (100%), -3%, not significant at 21 wk; 20/20 (100%), 17/17 (1"
same,outcome,"Carcinogen: ACETOXYMETHYL(METHYLNITROSAMINE), 56856-83-8, Dose [Inhibitor]: 0, 0.001% IN DRINKING WATER FOR 10 WK BEGINNING POST CARCINOGEN TREATMENT (STUDY DURATION: 31 WK), Route [Inhibitor]: ORAL, Species: RAT, Strain/Sex: SPRAGUE-DAWLEY/MALE, Target Tissue: Type of Lesion: LARGE BOWEL: TUMORS, Dose [Carcinogen]: 2 MG/KG BW 1/WK FOR 10 WK, Promoter: NONE USED","28/29 (97%), 29/29 (100%), -3%, not significant at 21 wk; 20/20 (100%), 18/18 (1"
same,outcome,"Carcinogen: ACETOXYMETHYL(METHYLNITROSAMINE), 56856-83-8, Dose [Inhibitor]: 0, 0.001% IN DRINKING WATER FOR 20 WK ADMINISTERED CONCURRENTLY WITH CARCINOGEN TREATMENT AND CONTINUED FOR 10 WK POST C, Route [Inhibitor]: ORAL, Species: RAT, Strain/Sex: SPRAGUE-DAWLEY/MALE, Target Tissue: Type of Lesion: LARGE BOWEL: TUMORS, Dose [Carcinogen]: 2 MG/KG BW 1/WK FOR 10 WK, Promoter: NONE USED","28/29 (97%), 27/30 (90%), 7%, not significant at 21 wk; 20/20 (100%), 20/20 (100"
